Data from US20260008787A1, “FUSED RING KRAS INHIBITORS FOR TREATING DISEASE” (BLOSSOMHILL THERAPEUTICS, INC., priority 2022, published 2026).
pIC50: −log10 of the molar value.

What was measured:
AGS (G12D) = assay: Cell proliferation assay (CellTiter-Glo, 72 hours), AGS; type: cell-based; conditions: 72 h, 384-well, CellTiter-Glo 2.0
Method: (§1) Two thousand KRAS mutant cells per well were seeded in 384-well white plate and then treated with indicated compounds for 72 hours at 37° C. and 5% CO2. Cell proliferation was measured using CellTiter-Glo 2.0 luciferase-based ATP detection assay (Promega, Madison, WI) following the manufacturer's protocol. IC50 values were determined using Prism software (GraphPad Software, San Diego, CA).

KRAS G12D = KRAS G12D (Homo sapiens, UniProt P01116, G12D); assay: biochemical
KRAS G12V = KRAS G12V (Homo sapiens, UniProt P01116, G12V); assay: biochemical
GP2D (KRAS G12D) = assay: Cell proliferation assay (CellTiter-Glo, 72 hours), GP2D; type: cell-based; conditions: GP2d, 72 h, 384-well, CellTiter-Glo 2.0
Method: as §1

SW620 (KRAS G12V) = assay: Cell proliferation assay (CellTiter-Glo, 72 hours), SW620; type: cell-based; conditions: Homo sapiens, SW-620, 72 h, 384-well, CellTiter-Glo 2.0
Method: as §1

KRAS G12D, sequence (P01116 1-188 isoform P01116-2 G12D): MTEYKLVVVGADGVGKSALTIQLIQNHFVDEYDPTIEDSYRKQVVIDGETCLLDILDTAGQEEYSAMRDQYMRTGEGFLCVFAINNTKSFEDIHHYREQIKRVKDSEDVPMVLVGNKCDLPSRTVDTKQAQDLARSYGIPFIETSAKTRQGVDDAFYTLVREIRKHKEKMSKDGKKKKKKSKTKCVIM
KRAS G12V, sequence (P01116 1-188 isoform P01116-2 G12V): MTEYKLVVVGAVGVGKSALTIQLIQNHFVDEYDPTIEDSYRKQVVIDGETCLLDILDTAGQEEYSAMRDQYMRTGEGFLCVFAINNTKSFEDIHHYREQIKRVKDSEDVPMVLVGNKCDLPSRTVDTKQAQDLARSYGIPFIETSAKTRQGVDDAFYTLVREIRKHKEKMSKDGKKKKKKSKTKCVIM

Row | SMILES | pIC50 (AGS (G12D)) | pIC50 (KRAS G12D) | pIC50 (KRAS G12V) | pIC50 (GP2D (KRAS G12D)) | pIC50 (SW620 (KRAS G12V))
1 | C#Cc1c(F)ccc2cc(O)cc(-c3nc4c5c(nc(OC[C@@]67CCCN6C[C@H](F)C7)nc5c3F)N(Cc3ccccc3)CCC4)c12 [Example 112, 4-[13-benzyl-6-fluoro-3-[[(2R,8S)-2-fluoro-1,2,3,5,6,7-hexahydropyrrolizin-8-yl]methoxy]-2,4,8,13-tetrazatricyclo [7.4.1.05,14]tetradeca-1,3,5,7,9 (14)-pentaen-7-yl]-5-ethynyl-6-fluoro-naphthalen-2-ol] | < 5.52 | 6.49 | 7.40 | < 5.52 | –
2 | CCc1c(F)ccc2cc(O)cc(-c3nc4c5c(nc(OC[C@@]67CCCN6C[C@H](F)C7)nc5c3F)N3CCC[C@](C)(O)[C@@H]3CO4)c12 [Example 114] | < 5.52 | 6.03 | 5.92 | < 5.52 | –
3 | CC[C@H]1COc2nc(-c3cc(O)cc4ccc(F)c(F)c34)c(F)c3nc(OC[C@@]45CCCN4C[C@H](F)C5)nc(c23)N1C [Example 115, 4-[(9S)-9-ethyl-4-fluoro-2-{[(2R,7aS)-2-fluorotetrahydro-1H-pyrrolizin-7a(5H)-yl]methoxy}-10-methyl-9,10-dihydro-8H-7-oxa-1,3,6,10-tetraazacyclohepta[1,2,3-de]naphthalen-5-yl]-5,6-difluoronaphthalen-2-ol] | 6.45 | 8.58 | 8.62 | 6.97 | –
4 | CC[C@H]1COc2nc(-c3cccc4sc(N)c(C#N)c34)c(F)c3nc(OC[C@@]45CCCN4C[C@H](F)C5)nc(c23)N1C [Example 116, 2-amino-4-[(9S)-9-ethyl-4-fluoro-2-{[(2R,7aS)-2-fluorotetrahydro-1H-pyrrolizin-7a(5H)-yl]methoxy}-10-methyl-9,10-dihydro-8H-7-oxa-1,3,6,10-tetraazacyclohepta[1,2,3-de]naphthalen-5-yl]-1-benzothiophene-3-carbonitrile] | < 5.52 | 7.85 | 8.19 | 6.12 | –
5 | CCc1c(F)ccc2cc(O)cc(-c3nc4c5c(nc(OC[C@@]67CCCN6C[C@H](F)C7)nc5c3F)N(C)[C@@H](C)CO4)c12 [Example 123, 5-ethyl-6-fluoro-4-[(9S)-4-fluoro-2-{[(2R,7aS)-2-fluorotetrahydro-1H-pyrrolizin-7a(5H)-yl]methoxy}-9,10-dimethyl-9,10-dihydro-8H-7-oxa-1,3,6,10-tetraazacyclohepta[1,2,3-de]naphthalen-5-yl]naphthalen-2-ol] | 6.43 | – | – | 7.39 | 6.82
6 | CCc1c(F)ccc2cc(O)cc(-c3nc4c5c(nc(OC[C@@]67CCCN6C[C@H](F)C7)nc5c3F)N[C@@H](CO)CO4)c12 [Example 124, 5-ethyl-6-fluoro-4-[(9S)-4-fluoro-2-{[(2R,7aS)-2-fluorotetrahydro-1H-pyrrolizin-7a(5H)-yl]methoxy}-9-(hydroxymethyl)-9,10-dihydro-8H-7-oxa-1,3,6,10-tetraazacyclohepta[1,2,3-de]naphthalen-5-yl]naphthalen-2-ol] | 5.48 | – | – | 5.76 | 5.48
7 | C#Cc1c(F)ccc2cc(O)cc(-c3nc4c5c(nc(OC[C@@]67CCCN6C[C@H](F)C7)nc5c3F)N(CC(F)F)[C@@H](C)CO4)c12 [Example 128, 4-[(9S)-10-(2,2-difluoroethyl)-4-fluoro-2-{[(2R,7aS)-2-fluorotetrahydro-1H-pyrrolizin-7a(5H)-yl]methoxy}-9-methyl-9,10-dihydro-8H-7-oxa-1,3,6,10-tetraazacyclohepta[1,2,3-de]naphthalen-5-yl]-5-ethynyl-6-fluoronaphthalen-2-ol] | 7.84 | – | – | 8.24 | 8.20
8 | C#Cc1c(F)ccc2cc(O)cc(-c3nc4c5c(nc(OC[C@@]67CCCN6C[C@H](F)C7)nc5c3F)N(C)C3(CCOC3)CO4)c12 (stereo partly drawn) [Example 129, 5-ethynyl-6-fluoro-4-[6-fluoro-3-[[(2R,8S)-2-fluoro-1,2,3,5,6,7-hexahydropyrrolizin-8-yl]methoxy]-13-methyl-spiro[10-oxa-2,4,8,13-tetrazatricyclo[7.4.1.05,14]tetradeca-1,3,5,7,9 (14)-pentaene-12,3′-tetrahydrofuran]-7-yl]naphthalen-2-ol] | < 5.52 | – | – | < 5.52 | < 5.52
9 | C#Cc1c(F)ccc2cc(O)cc(-c3nc4c5c(nc(OC[C@@]67CCCN6C[C@H](F)C7)nc5c3F)N(C[C@@H](C)O)[C@@H](C)CO4)c12 [Example 130, 5-ethynyl-6-fluoro-4-((S)-4-fluoro-2-(((2R,7aS)-2-fluorotetrahydro-1H-pyrrolizin-7a(5H)-yl)methoxy)-10-((R)-2-hydroxypropyl)-9-methyl-9,10-dihydro-8H-7-oxa-1,3,6,10-tetraazacyclohepta[de]naphthalen-5-yl)naphthalen-2-ol] | 6.71 | – | – | 6.94 | 6.88
10 | CCc1c(F)ccc2cc(O)cc(-c3nc4c5c(nc(OC[C@@]67CCCN6C[C@H](F)C7)nc5c3F)N(CC(F)F)[C@@H](C)CO4)c12 [Example 131, 4-[(9S)-10-(2,2-difluoroethyl)-4-fluoro-2-{[(2R,7aS)-2-fluorotetrahydro-1H-pyrrolizin-7a(5H)-yl]methoxy}-9-methyl-9,10-dihydro-8H-7-oxa-1,3,6,10-tetraazacyclohepta[1,2,3-de]naphthalen-5-yl]-5-ethyl-6-fluoronaphthalen-2-ol] | 7.18 | – | – | 7.62 | 7.37
11 | CCc1c(F)ccc2cc(O)cc(-c3nc4c5c(nc(OC[C@@]67CCCN6C[C@H](F)C7)nc5c3F)N(C)C3(CCOC3)CO4)c12 (stereo partly drawn) [Example 132, 5-ethyl-6-fluoro-4-(4-fluoro-2-{[(2R,7aS)-2-fluorotetrahydro-1H-pyrrolizin-7a(5H)-yl]methoxy}-10-methyl-8H,10H-spiro[7-oxa-1,3,6,10-tetraazacyclohepta[1,2,3-de]naphthalene-9,3′-oxolan]-5-yl)naphthalen-2-ol] | < 5.52 | – | – | < 5.52 | 5.86
12 | C#Cc1c(F)ccc2cc(O)cc(-c3nc4c5c(nc(OC[C@@]67CCCN6C[C@H](F)C7)nc5c3F)N(CC(F)(F)F)[C@@H](C)CO4)c12 [Example 133, 5-ethynyl-6-fluoro-4-((S)-4-fluoro-2-(((2R,7aS)-2-fluorotetrahydro-1H-pyrrolizin-7a(5H)-yl)methoxy)-9-methyl-10-(2,2,2-trifluoroethyl)-9,10-dihydro-8H-7-oxa-1,3,6,10-tetraazacyclohepta[de]naphthalen-5-yl)naphthalen-2-ol] | 7.30 | – | – | 7.67 | 7.59
13 | CCc1c(F)ccc2cc(O)cc(-c3nc4c5c(nc(OC[C@@]67CCCN6C[C@H](F)C7)nc5c3F)N3CCC[C@@](C)(O)[C@H]3CO4)c12 [compound 3, (8aR,9R)-5-(8-ethyl-7-fluoro-3-hydroxynaphthalen-1-yl)-4-fluoro-2-{[(2R,7aS)-2-fluorotetrahydro-1H-pyrrolizin-7a(5H)-yl]methoxy}-9-methyl-8,8a,9,10,11,12-hexahydro-7-oxa-1,3,6,12a-tetraazabenzo[4,5]cyclohepta[1,2,3-de]naphthalen-9-ol] | 7.24 | 8.78 | 8.73 | 7.81 | –
